Data as given in US6316421A, “Pentaerythritol lipid derivatives and nuleic-acid complexes” (The Regents of the University of California, priority 2000, dated 2001).

Legend:
[1] = Relative cytotoxicity by MTS assay (CellTiter 96) of lipoplex-treated NIH 3T3 cells; assay type: cell-based; conditions: mouse, nih 3t3 cells, 1:1 lipid:DOPE, 2:1 charge ratio, FIG. 2, read-out: treated cells impaired
Description: (§1) FIG. 2 is a bar graph showing luciferase transfection results as the mean (n=4) and standard deviation of total luciferase light units (RLU, left vertical axis) obtained from NIH 3T3 cells lysed after administration of […] of DNA. Relative cytotoxicity, depicted by the solid line, is plotted according to the right vertical axis, calculated as described in Example 3. With the exception of DOTAP, 1:1 cationic lipid:DOPE liposomes at a 2:1 molar charge ratio (lipid charge to DNA phosphate charge) were used for lipoplex formation. DOTAP was used without a co-lipid.
(§2) Cell viability was determined by evaluating the […] dehydrogenase activity of post-transfected cells prior to lysis using the CellTiter 96 Aqueous Non-Radioactive Cell Proliferation Assay (Promega). The tetrazolium salt solution (Owen's Reagent; […]) was added to each well and the 24 well plate was then gently agitated to ensure complete mixing. After incubation for an additional 3-4 h, each well was assayed for formazan production by removing an aliquot of the medium and diluting with 9 parts phosphate buffered saline (PBS) solution. The dilution was conducted in a 1.5 mL methylacrylate UV/VIS disposable cell, and the relative amount of formazan was determined by taking absorbance reading at 490 nm using PBS as the reference. The mean (n=4) of the absorbance values was calculated and compared to the mean absorbance value for non-transfected cells. The final results were expressed in terms of relative cytotoxicity. Relative cytotoxicity was calculated by subtracting from one the ratio of mean absorbance value for transfected cells over mean absorbance value for untreated cells. A relative cytotoxicity value of zero implies no difference from untreated cells, no measurable cytotoxicity. The maximum value of one implies total cell death for treated cells, no measurable formazan production indicating significant toxicity. Negative values may reflect enhanced formazan production as a consequence of cell growth relative to untreated cells.
(§3) To test whether (DMTM(Gly)) and (DOTM(GLY)) ameliorate lipid-induced cytotoxicity, a cell viability assay was performed. The relative cytotoxicity for these lipids and the popular transfection lipids DOTAP and DC-Chol was determined by measuring the […] dehydrogenase activity for lipoplex-treated cells. The comparative assay was performed using NIH 3T3 and 16HBE14o- cells, and the results are plotted in FIGS. 2 and 3, respectively. A requisite for evaluation of cytotoxicity is the concurrent determination of relative transfection activity. Thus, the cationic lipids were evaluated for relative cytotoxicity immediately prior to determination of luciferase activity. […]

NIH 3T3 cells [2] = experiment: as above; assay type: cell-based; conditions: 1:1 lipid:DOPE, 2:1 charge ratio, FIG. 2
Description: as §1, §2, §3

[3] = test system: NIH 3T3 and 16HBE14o- cells; experiment: GFP reporter gene transfection (pEGFP-C1), fluorescence microscopy; assay type: cell-based; conditions: 48 h post-transfection
Description: (§4) Fluorescence experiments were conducted by transfecting the pEGFP-C1 C-Terminal protein fusion vector (Clontech, Palo Alto, Calif.) into NIH 3T3 and 16HBE14o- cells. The transfection protocol was identical to that of luciferase expression experiments in Example 1. Cells were grown for 48 h post-transfection, fixed with 3.7% formaldehyde, and viewed on a Zeiss ICM 405 inverted microscope with high resolution long-working distance objectives. Cells were photographed on the fluorescein channel and with phase contrast optics with a 40× water objective, using T-Max 400 (Kodak, Rochester, N.Y.) film.
(§5) To probe relationships between cellular uptake, expression, and cytotoxicity, a transfection study was conducted using the GFP reporter gene. Fluorescent microscopy of cells treated with GFP-encoded plasmid is a sensitive tool for determining the occurrence of transgene expression. […] Thus, the onset of cytotoxicity precedes gene expression.

[4] = test system: NIH 3T3 and 16HBE14o- cells; experiment: Phase contrast microscopy of cells transfected with GFP lipoplexes; assay type: cell-based; conditions: for cell morphology by phase contrast: 48 h post-transfection, cell line not stated
Description: as §4, §5

NIH 3T3 cells [5] = experiment: Luciferase transfection (pGL3-control plasmid), NIH 3T3 cells; assay type: cell-based; conditions: for facilitating the intracellular delivery of plasmid DNA: Example 2 conclusion, luciferase plasmid
Description: FIG. 1 is a bar graph showing the transfection activity of DMTM(Gly):DOPE liposomes as a function of the mole percent DOPE. DNA transfections were performed using NIH 3T3 cells. Lipoplexes were formulated at a 2:1 molar charge ratio (lipid charge to DNA phosphate charge). The values shown are the mean (n=4) and standard deviation of total luciferase light units (RLU) obtained from cells lysed after administration of […] DNA.
as §1
(§6) a.) Liposome Formulation.
(§7) The cationic lipid […] and DOPE […] were added as chloroform solutions to a 1.9 mL sample vial. The chloroform was evaporated using a stream of dry argon at room temperature. The resulting thin lipid films were placed under vacuum for 2-3 h to ensure that all traces of solvent were removed. Sterile water (1.0 mL) was then added to hydrate the lipid thin films, and the resultant suspension was vigorously mixed (vortex) at room temperature with occasional warming in a 60° C. water bath. The resultant 1.0 mM lipid suspension was used within 2 h of hydration.
NIH 3T3 cells were obtained from ATCC (CRL 1658) and grown in Dulbecco's Modified Eagle's Medium (DMEM; GIBCO) with 10% fetal calf serum (GIBCO) in a humidified 10% CO2 incubator at 37° C. Human bronchial epithelial cells (16HBE14o-) were cultured in Eagle's modified essential medium (MEM; GIBCO) supplemented with 10% fetal bovine serum (GIBCO), 1% glutamine (GIBCO), 1% penicillin and streptomycin (GIBCO), and grown in a 5% humidified CO2 incubator at 37° C. Both cell lines were subcultured into sterile, untreated flasks.
The NIH 3T3 cells were plated at 50,000 cells per well on a standard 24 well plate (Corning, Corning, N.Y.) 24 h prior to transfection. Cells were approximately 80% confluent at the time of transfection. The HBE cells were plated at 50,000 cells/well on a 24 well tissue culture plate coated with fibronectin, vitrogen (collagen), and bovine serum albumin as previously described (Gruenert, D. C., Basbaum C. B., and Widdicombe J. H. (1990) In Vitro Cell Dev Biol., 26, 411-418.) and were transfected as subconfluent monolayers 24 h prior to transfection. The growth media was removed via aspiration and each well was washed once with 0.5 mL buffered saline and overlaid with only MEM.
Cationic lipid-DNA complexes were prepared 15-40 mins prior to transfection. The pGL3-control vector encoding for firefly luciferase (Promega, Madison, Wis.) was. slowly added to a diluted (DMEM or MEM) quantity of the cationic lipid:DOPE suspension in a polystyrene tube. (Falcon #2058), and the lipid-DNA complex was diluted to a final volume of […]. Typically (e.g. using DOTAP), […] of the lipid suspension was used to complex […] of the plasmid DNA, yielding a 2:1 cationic lipid:DNA phosphate molar ratio. Immediately on DNA addition, the suspension was vortexed and allowed to incubate for 15 min at room temperature. A […] aliquot of the resultant lipid-DNA suspension was added to each well […]. The treated cells were then incubated for 4 h at 37° C. Control wells were treated with […] of medium without supplement. At this time, […] of the appropriate growth media including 10% FCS was added to all wells and the cells cultured for 48 h prior to lysis and analysis.
(§8) Relative luciferase activity was determined by using the Enhanced Luciferase Assay Kit and a Moonlight 2010 luminometer (Analytical Luminescence Laboratories, Sparks, Md.). […]

16HBE14o- cells = experiment: Luciferase transfection (pGL3-control plasmid), 16HBE14o- cells; assay type: cell-based, Human; conditions: FIG. 3
Description: FIG. 3 is a bar graph showing luciferase transfection results as the mean (n=4) and standard deviation of total luciferase light units (RLU, left vertical axis) obtained from 16HBE14o- cells lysed after administration of […] of DNA. Relative cytotoxicity, depicted by the solid line, is plotted according to the right vertical axis, calculated as described in Example 3. With the exception of DOTAP, 1:1 cationic lipid:DOPE liposomes at a 2:1 molar charge ratio (lipid charge to DNA phosphate charge) were used for lipoplex formation. DOTAP was used without a co-lipid.
as §6, §7
NIH 3T3 cells were obtained from ATCC (CRL 1658) and grown in Dulbecco's Modified Eagle's Medium (DMEM; GIBCO) with 10% fetal calf serum (GIBCO) in a humidified 10% CO2 incubator at 37° C. Human bronchial epithelial cells (16HBE14o-) were cultured in Eagle's modified essential medium (MEM; GIBCO) supplemented with 10% fetal bovine serum (GIBCO), 1% glutamine (GIBCO), 1% penicillin and streptomycin (GIBCO), and grown in a 5% humidified CO2 incubator at 37° C. […]
Cationic lipid-DNA complexes were prepared 15-40 mins prior to transfection. The pGL3-control vector encoding for firefly luciferase (Promega, Madison, Wis.) was. slowly added to a diluted (DMEM or MEM) quantity of the cationic lipid:DOPE suspension in a polystyrene tube. […]
as §8

**Q.** With `CC(C)CCC[C@@H](C)[C@H]1CC[C@H]2[C@@H]3CC=C4C[C@@H](OC(=O)NCCN(C)C)CC[C@]4(C)[C@H]3CC[C@]12C` [DC-Chol, 3,β-(N-(N',N'-dimethylaminoethane)-carbamoyl)cholesterol, reference compound] as the compound, how does the cytotoxicity [1] read?
**A.** The cytotoxicity was roughly 60%.

**Q.** And the “cytotoxic response (MTS relative cytotoxicity)” value (NIH 3T3 cells [2])?
**A.** The value was “significantly more cytotoxic”.

**Q.** And the “GFP gene transfer (presence of fluorescent cells)” value [3]?
**A.** The value was “active in facilitating gene transfer”.

**Q.** And the “cell morphology by phase contrast” value [4]?
**A.** The value was “dense regions of large vacuoles”.

**Q.** What about the “vacuolization compared with DOTM(Gly), DOTAP, or DMTM(Gly)” value ([4]; phase contrast) of the same compound?
**A.** The value was “significantly greater vacuolization”.

**Q.** Which “lipid:DOPE optimization results compared with DMTM(Gly)” value (NIH 3T3 cells [5]; DOPE titration, compared with DMTM(Gly):DOPE) does the source give for `CCCCCCCC/C=C\CCCCCCCC(=O)OCC(COC(=O)CCCCCCC/C=C\CCCCCCCC)(COC(=O)C[N+](C)(C)C)COC(=O)C[N+](C)(C)C` [DOTM(Gly), dioleoyl bis (N,N,N-trimethylglycyl) tetraester] here?
**A.** Its value is “similar”.

**Q.** And the “facilitating the intracellular delivery of plasmid DNA” value (NIH 3T3 cells [5])?
**A.** Its value is “capable of facilitating the intracellular delivery of plasmid DNA”.

**Q.** And the “expression in comparison to DOTAP and DC-Cholesterol” value (NIH 3T3 cells [5]; NIH 3T3, 1:1 lipid:DOPE (DOTAP without co-lipid), FIG. 2)?
**A.** The value was “reaching an order of magnitude greater expression”.

**Q.** What about the “transfection activity compared with dimyristoyl analog” value (NIH 3T3 cells [5]; NIH 3T3, 1:1 lipid:DOPE, 2:1 charge ratio, FIG. 2) of the same compound?
**A.** Its value is “greater transfection activity than the dimyristoyl analog”.

**Q.** What about the “expression in comparison to DOTAP and DC-Cholesterol” value (16HBE14o- cells; 1:1 lipid:DOPE (DOTAP without co-lipid)) of the same compound?
**A.** The value was “reaching an order of magnitude greater expression”.

**Q.** What about the “transfection activity compared with dimyristoyl analog” value (16HBE14o- cells; 1:1 lipid:DOPE, 2:1 charge ratio) of the same compound?
**A.** The value was “greater transfection activity than the dimyristoyl analog”.

**Q.** What about the “cytotoxic response (MTS relative cytotoxicity)” value (NIH 3T3 cells [2]) of the same compound?
**A.** The value was “did not induce a cytotoxic response”.

**Q.** What about the “GFP gene transfer (presence of fluorescent cells)” value [3] of the same compound?
**A.** Its value is “active in facilitating gene transfer”.

**Q.** What about the “cell morphology by phase contrast” value [4] of the same compound?
**A.** Its value is “normal cellular morphology”.

**Q.** Which “facilitating the intracellular delivery of plasmid DNA” value (NIH 3T3 cells [5]) does the source give for `CCCCCCCCCCCCCC(=O)OCC(COC(=O)CCCCCCCCCCCCC)(COC(=O)C[N+](C)(C)C)COC(=O)C[N+](C)(C)C` [DMTM(Gly), dimyristoyl bis(N,N,N-trimethylglycyl) tetraester] here?
**A.** Its value is “capable of facilitating the intracellular delivery of plasmid DNA”.

**Q.** And the “transfection activity compared with DOTAP and DC-Chol” value (NIH 3T3 cells [5]; NIH 3T3, 1:1 lipid:DOPE, FIG. 2)?
**A.** Its value is “transfection activities similar to DOTAP and DC-Chol”.

**Q.** What about the “transfection activity on co-formulation with DOPE (DOPE titration)” value (NIH 3T3 cells [5]; NIH 3T3, equimolar lipid and DOPE, 2:1 molar charge ratio, FIG. 1) of the same compound?
**A.** Its value is “near optimal transfection activity”.

**Q.** What about the “effect of larger percentage DOPE on transfection activity” value (NIH 3T3 cells [5]; NIH 3T3, larger percentage DOPE than equimolar, FIG. 1) of the same compound?
**A.** Its value is “only negligible improvement”.

**Q.** And the “transfection activity compared with DOTAP and DC-Chol” value (16HBE14o- cells; 1:1 lipid:DOPE)?
**A.** The value was “transfection activities similar to DOTAP and DC-Chol”.

**Q.** What about the “cytotoxic response (MTS relative cytotoxicity)” value (NIH 3T3 cells [2]) of the same compound?
**A.** Its value is “did not induce a cytotoxic response”.
